Entries after “also recorded” stand apart in the source; their conditions may differ.
Assays:
[1] = Concentration effects of Dotarem and Gadavist on ^23Na spectra, concentric tubes phantom; assay type: physicochemical; conditions: 20 mM, 10 mM, 5 mM in outer compartment, tubes parallel to the magnetic field
Method: Spectra are shown for 20 mM, 10 mM, and 5 mM, where 0 ppm corresponds to the natural, unshifted ^23Na resonance of the inner compartment to which no agent was added.

[2] = Bulk magnetic susceptibility (BMS) contribution to chemical shift in phantoms; assay type: physicochemical; conditions: phantoms
Source text: Upon translation of the present in vitro results to in vivo situations, certain confounding factors must be addressed. In the interstitial space, there are additional cations such as calcium (Ca^2+), magnesium (Mg^2+) and K^+ which will also bind to anionic contrast agents like TmDOTP^5−. However, physiologically their concentrations are low compared to Na^+. […] Additionally, there is a contribution to the chemical shift from bulk magnetic susceptibility (BMS) changes brought about by TmDOTP^5− in addition to the hyperfine shifts induced by interactions with Na^+. Experiments were performed on different DOTP^8− salts in phantoms parallel and perpendicular to the main magnetic field B0, and also spherical phantoms in which there was no BMS contribution. Only a small portion (˜2%) of the total chemical shift for TmDOTP^5− was due to BMS arising due to anisotropy of the paramagnetic susceptibility, and the remainder was the hyperfine shift.

U87-bearing rat brain = test: In vivo ^23Na-MRSI line broadening in glioma models
Source text: FIGS. 10C-10F illustrates images according to certain embodiments of the disclosure. […] However, the ^23Na linewidth analysis by TmDOTP^5− is confounded by its high ^23Na shiftability. This peak separation in vivo overestimates the full-width at half-maximum (FWHM) calculations and exaggerates the measured ^23Na linewidths.
Slice 1 is most superficial, and slice 3 is the deepest. The tumor outline is depicted in white in all columns.
This establishes GdDOTP^5−-induced ^23Na linewidth broadening as a potential surrogate marker for the altered Na^+ biodistribution within tumors. Thus, in brain tumor models, TmDOTP^5− with ^23Na-NMR can separate Na^+ in intracellular, blood, and interstitial pools, while GdDOTP^5− can distinguish Na^+ within intracellular and extracellular (i.e., blood and interstitial) pools.
Because the majority of the present studies looked at ^23Na chemical shift, the line broadening capabilities of these paramagnetic agents were also interrogated. […] This is due to the high magnetic moment of Gd^3+ which contributes to some degree of anisotropy to the paramagnetic susceptibility. […] Crucially, this family of paramagnetic agents has allowed to insightful probing of the tumor microenvironment and drawing of significant conclusions about tumor aggressiveness based on spectroscopic analysis.

[3] = Comparison of ^23Na shiftability and broadening potential of DOTP agents; assay type: physicochemical
U87 tumors = test: Sorafenib treatment of U87 GBM models monitored by ^1H-MRI and ^23Na-MRSI; assay type: in vivo, rat; conditions: for tumor growth: U87, 0.1 g/kg body weight daily oral gavage from day 9, imaged 6 days after, vs DMSO control
Method: FIG. 9 depicts spatial distributions of compartmentalized ^23Na signals (Na^+b, Na^+e, Na^+i) as well as transendothelial (ΔNa^+end) and transmembrane (ΔNa^+mem) gradients in a pair of U87 tumors, one of which was treated with sorafenib, an anti-angiogenic tyrosine kinase inhibitor that targets vascular endothelial growth factor receptor (VEGFR) and platelet-derived growth factor receptor (PDGFR). Sorafenib dosage was 0.1 g/kg body weight, dissolved in dimethylsulfoxide (DMSO) for the treated animal, whereas the untreated control received an equivalent dose of pure DMSO. Daily treatment began on day 9 post-tumor-inoculation, and imaging was performed an additional 6 days after.
Having established the utility of ^23Na-MRSI in vivo with TmDOTP^5−, additional applications of Na^+ imaging were explored, such as monitoring therapeutic efficacy or using other agents to probe different spectroscopic characteristics. A separate cohort of U87 GBM models were treated with sorafenib, an anti-angiogenic tyrosine kinase inhibitor, with some animals kept as controls. Sorafenib treatment (0.1 g/kg body weight) began on day 9 following tumor inoculation and was dissolved in dimethylsulfoxide (DMSO) to be delivered via oral gavage. […] Therefore, ^23Na-MRSI with TmDOTP^5− has potential to effectively image the efficacy of cancer drugs.

Gd^3+2-[4,7,10-tris(carboxymethyl)-1,4,7,10-tetrazacyclododec-1-yl]acetate [Dotarem]
^23Na shiftability [1]: shiftability stronger than the other Gd^3+-based agents with macrocyclic chelates

O=P([O-])([O-])CN1CCN(CP(=O)([O-])[O-])CCN(CP(=O)([O-])[O-])CCN(CP(=O)([O-])[O-])CC1.[Gd+3] [GdDOTP^5−]
BMS contribution to chemical shift [2]: dominated by BMS effect | ^23Na line broadening in tumor versus normal tissue (U87-bearing rat brain; glioma models, after agent infusion): most prominent within in the tumor; also recorded: considerable linewidth broadening within gliomas; also recorded: larger within the tumor as well compared to healthy tissue | correlation of tumoral line broadening with increases in ΔNa^+end and decreases in ΔNa^+mem (U87-bearing rat brain; same rat, gradients from TmDOTP^5− shifts): correlated well | broadening potential (sensitivity of linewidth to agent concentration), words [3]: high broadening potentials; also recorded: comparable broadening potential as TmDOTP^5− | shiftability (sensitivity of ^23Na chemical shift to agent concentration), words [3]: without inducing ^23Na shift differences between compartments; also recorded: smaller shiftability

O=C([O-])CN1CCN(CC(=O)[O-])CCN([C@H](CO)[C@H](O)CO)CCN(CC(=O)[O-])CC1.[Gd+3] [Gadavist, Gd^3+2,2′,2″-(10-((2R,3S)-1,3,4-trihydroxybutan-2-yl)-1,4,7,10-tetraazacyclododecane-1,4,7-triyl)triacetate]
^23Na shiftability [1]: shiftability stronger than the other Gd^3+-based agents with macrocyclic chelates

CNC(=O)c1cc(Oc2ccc(NC(=O)Nc3ccc(Cl)c(C(F)(F)F)c3)cc2)ccn1 [sorafenib]
tumor growth (U87 tumors): slow tumor growth compared to untreated animals | tumor growth (U87 tumors; listed as Sorafenib): retarded the growth rate of the tumor | region of alterations in Na^+ distribution (elevated Na b and ΔNa^+end, decreased Na^+e and ΔNa^+mem) (U87 tumors; U87, treated vs untreated tumor, ^23Na-MRSI with TmDOTP^5−): confined to a smaller region for the treated tumor
